Eight compounds from ChEMBL document CHEMBL1201862, “PubChem BioAssay data set” (2004) can be followed below.

Some test systems named below: SF-539; M14; A549; HCT-15; OVCAR-8; CCRF-CEM; MCF7; RXF 393; UACC-257; Hs-578T; NCI-H460; OVCAR-5; HL-60; SK-MEL-5; 786-0; UO-31; SNB-75; ACHN; SW-620; OVCAR-4.
Holding throughout (test): growth of human tumour cells (NCI), 48 h

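Following 48 hours of exposure in 96-well plates, responses at five concentrations were used to interpolate endpoints linearly. Here, GI50 denotes the concentration required for 50% inhibition of growth.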 Active and inactive are the calls of the source. Rule as the data show it: active = GI50 up to about 1.1 µM and inactive = higher. Where only a bound is given, the exact number is not on record here.

`c1cc(-c2ccc(-c3ccc(C4=NC5CCCCC5N4)cc3)o2)ccc1C1=NC2CCCCC2N1` (stereo not given): the GI50 with SF-539 was 1.73 µM (inactive); with M14 it was 1.64 µM (inactive); with A549, 1.71 µM (inactive); in the assay with HCT-15, 5.19 µM; in the assay on OVCAR-8, 1.79 µM (inactive); with CCRF-CEM, 1.79 µM (inactive). The GI50 in the assay on MCF7 is 1.21 µM (inactive); in the assay on RXF 393, 1.95 µM (inactive); with UACC-257, 1.75 µM (inactive); in the assay with Hs-578T, 1.55 µM (inactive); in the assay with NCI-H460, 1.84 µM (inactive); with OVCAR-5, 2.09 µM (inactive). The GI50 in the assay on HL-60 was 2.31 µM (inactive); in the assay on SK-MEL-5, 1.57 µM (inactive); with 786-0, 1.49 µM (inactive); in the assay on UO-31, 2.99 µM (inactive); in the assay with SNB-75, 1.68 µM (inactive); with ACHN, 2.36 µM (inactive). For the same compound, the GI50 in the assay with SW-620 was 2.56 µM (inactive); with OVCAR-4, 1.56 µM (inactive).

As to `O=[N+]([O-])c1cccc(/N=N/c2c(O)c(S(=O)(=O)O)cc3cc(S(=O)(=O)O)ccc23)c1`, the GI50 in the assay on SF-539 was > 100 µM (inactive); in the assay on M14 it was > 100 µM (inactive); in the assay with A549, > 100 µM (inactive); in the assay on HCT-15, greater than 100 µM; in the assay with OVCAR-8, > 100 µM (inactive); in the assay with CCRF-CEM, > 100 µM (inactive). For the same compound, the GI50 was 67.8 µM (inactive) with MCF7; > 100 µM (inactive) in the assay on RXF 393; > 100 µM (inactive) in the assay on UACC-257; > 100 µM (inactive) in the assay with Hs-578T; > 100 µM (inactive) in the assay with NCI-H460; > 100 µM (inactive) in the assay on OVCAR-5. The GI50 in the assay on HL-60, in the assay with SK-MEL-5, in the assay on 786-0, in the assay on UO-31, with SNB-75 and in the assay on ACHN was > 100 µM (inactive) in each case. For the same compound, the GI50 in the assay with SW-620 and in the assay on OVCAR-4 was > 100 µM (inactive) throughout.

With `CC1(C)CC(=O)C(=CN2C(=O)CNC2=S)C(=O)C1`, the GI50 is > 100 µM (inactive) in the assay on SF-539; > 100 µM (inactive) in the assay on M14; > 100 µM (inactive) in the assay on A549; greater than 100 µM in the assay with HCT-15; > 100 µM (inactive) in the assay with OVCAR-8; > 100 µM (inactive) with CCRF-CEM. For the same compound, the GI50 was > 100 µM (inactive) with MCF7; 85.9 µM (inactive) in the assay on RXF 393; > 100 µM (inactive) in the assay on UACC-257; > 100 µM (inactive) with Hs-578T; > 100 µM (inactive) in the assay on NCI-H460; > 100 µM (inactive) with OVCAR-5. The GI50 in the assay on HL-60, in the assay with SK-MEL-5, in the assay on 786-0, in the assay with UO-31, in the assay with SNB-75 and in the assay with ACHN was > 100 µM (inactive) in each case. Further, the GI50 with SW-620 and in the assay on OVCAR-4 was > 100 µM (inactive) throughout.

Take `Nc1ncnc2nn(C3OC(CO)C(O)C3O)nc12` (stereo not given): the GI50 with SF-539 was 21.8 µM (inactive); in the assay with M14, 6.82 µM (inactive); with A549, 9.16 µM (inactive); with HCT-15 it was 5.62 µM; in the assay on OVCAR-8, 8.11 µM (inactive); in the assay with CCRF-CEM it was 21.1 µM (inactive). The GI50 in the assay on MCF7 was 8.28 µM (inactive); in the assay with RXF 393, 2 µM (inactive); in the assay with UACC-257, 23.2 µM (inactive); in the assay with Hs-578T, 31.5 µM (inactive); in the assay with NCI-H460, 4.09 µM (inactive); with OVCAR-5, 9.06 µM (inactive). Besides, the GI50 was 2.43 µM (inactive) with HL-60; 12.8 µM (inactive) in the assay on SK-MEL-5; 10.4 µM (inactive) with 786-0; 6.44 µM (inactive) in the assay on UO-31; 9.77 µM (inactive) in the assay with SNB-75; 3.67 µM (inactive) in the assay on ACHN. Further, the GI50 is 6.52 µM (inactive) in the assay with SW-620 and 28 µM (inactive) in the assay on OVCAR-4.

On to `N#CC1C(=O)NC2=C(CCOc3c2ccc2ccccc32)C1c1ccc(F)cc1` (stereo not given), for which the GI50 in the assay on SF-539 is 44.8 µM (inactive); in the assay on M14, 26.1 µM (inactive); in the assay with A549, 25.2 µM (inactive); in the assay with HCT-15, 38.5 µM; in the assay with OVCAR-8 it was 33.3 µM (inactive); with CCRF-CEM, 28.4 µM (inactive). The GI50 in the assay on MCF7 is 36.7 µM (inactive); in the assay with RXF 393, 15 µM (inactive); in the assay on UACC-257, > 100 µM (inactive); in the assay with Hs-578T it was 16.2 µM (inactive); in the assay on NCI-H460 it was 29.9 µM (inactive); in the assay on OVCAR-5 it was 23.5 µM (inactive). In addition, the GI50 is > 100 µM (inactive) in the assay with HL-60; 21.5 µM (inactive) in the assay with SK-MEL-5; 17.7 µM (inactive) in the assay on 786-0; 12.1 µM (inactive) in the assay on UO-31; 20.2 µM (inactive) with SNB-75; 13.3 µM (inactive) with ACHN. Further, the GI50 in the assay with SW-620 is 31 µM (inactive); in the assay on OVCAR-4, 31.8 µM (inactive).

In the case of `COc1cc2c(c(OC)c1OC)-c1ccc(OC)c(=O)cc1C(NC(=O)COc1ccccc1)CC2` (stereo not given), the GI50 with SF-539 was < 0.01 µM (active); in the assay on M14, < 0.01 µM (active); in the assay on A549 it was < 0.01 µM (active); in the assay on HCT-15 it was 0.0104 µM; with OVCAR-8, < 0.01 µM (active); with CCRF-CEM, 0.0162 µM (active). The GI50 was < 0.01 µM (active) with MCF7; 0.0184 µM (active) with RXF 393; < 0.029 µM (active) in the assay with UACC-257; < 0.01 µM (active) in the assay on Hs-578T; < 0.01 µM (active) with NCI-H460; 0.3 µM (active) in the assay on OVCAR-5. The GI50 in the assay with HL-60 is 0.0372 µM (active); in the assay with SK-MEL-5, < 0.01 µM (active); in the assay on 786-0, < 0.01 µM (active); with UO-31 it was 0.0402 µM (active); with SNB-75, < 0.01 µM (active); with ACHN, 0.0101 µM (active). Also, the GI50 with SW-620 was < 0.01 µM (active); in the assay with OVCAR-4, 3.11 µM (inactive).

As for `COC(=O)[C@@]12C(=O)C=CC(=O)[C@@H]1C1C(=CC2COC(C)=O)O[C@@H]2OC3(CCCCC3)O[C@H]12` (stereo not given in full), the GI50 is 10.4 µM (inactive) in the assay with SF-539; 15.6 µM (inactive) with M14; 14.5 µM (inactive) in the assay with A549; 5.66 µM with HCT-15; 7.94 µM (inactive) with OVCAR-8; 8.13 µM (inactive) in the assay with CCRF-CEM. For the same compound, the GI50 was 14.1 µM (inactive) in the assay on MCF7; 11.1 µM (inactive) in the assay with RXF 393; 16.3 µM (inactive) with UACC-257; 9.46 µM (inactive) with Hs-578T; 16.9 µM (inactive) in the assay on NCI-H460; 16.7 µM (inactive) in the assay on OVCAR-5. Moreover, the GI50 was 2.89 µM (inactive) with HL-60; 18 µM (inactive) with SK-MEL-5; 7.1 µM (inactive) in the assay with 786-0; 14.9 µM (inactive) in the assay with UO-31; 13 µM (inactive) in the assay on SNB-75; 9.04 µM (inactive) in the assay with ACHN. For the same compound, the GI50 in the assay on SW-620 was 3.75 µM (inactive); with OVCAR-4, 5.24 µM (inactive).

For `Cc1ccc(C)n1-c1ccccc1C1C=Cn2c3c1c(=O)c(OC(C)C)c(OC(C)C)c-3n[nH]c2=O` (stereo not given), the GI50 with SF-539 was 58.3 µM (inactive); in the assay with M14 it was 25.1 µM (inactive); in the assay with A549, 23.4 µM (inactive); in the assay on HCT-15 it was 21.7 µM; in the assay on OVCAR-8, 33.7 µM (inactive); with CCRF-CEM, 13.3 µM (inactive). In addition, the GI50 in the assay with MCF7 was 22.2 µM (inactive); in the assay with RXF 393, 23 µM (inactive); in the assay with UACC-257, 32.6 µM (inactive); with Hs-578T, 35.4 µM (inactive); with NCI-H460, 37.6 µM (inactive); in the assay on OVCAR-5 it was > 100 µM (inactive). The GI50 is 5.45 µM (inactive) in the assay with HL-60; 5.01 µM (inactive) with SK-MEL-5; 20.9 µM (inactive) in the assay with 786-0; 64.3 µM (inactive) in the assay on UO-31; 25.4 µM (inactive) in the assay on SNB-75; 45.8 µM (inactive) in the assay with ACHN. Further, the GI50 with SW-620 is 18.3 µM (inactive); in the assay on OVCAR-4, 38.9 µM (inactive).
